The values that follow come from patent publication US20060281719A1, “Oestrogen-17-sulphamates as inhibitors of steroid sulphatase” (priority 2000, published 2006).

The target of series [1] is T1, oestrone sulphatase (E1-STS) (Homo sapiens, UniProt P08842).
T1 sequence (P08842 22-583): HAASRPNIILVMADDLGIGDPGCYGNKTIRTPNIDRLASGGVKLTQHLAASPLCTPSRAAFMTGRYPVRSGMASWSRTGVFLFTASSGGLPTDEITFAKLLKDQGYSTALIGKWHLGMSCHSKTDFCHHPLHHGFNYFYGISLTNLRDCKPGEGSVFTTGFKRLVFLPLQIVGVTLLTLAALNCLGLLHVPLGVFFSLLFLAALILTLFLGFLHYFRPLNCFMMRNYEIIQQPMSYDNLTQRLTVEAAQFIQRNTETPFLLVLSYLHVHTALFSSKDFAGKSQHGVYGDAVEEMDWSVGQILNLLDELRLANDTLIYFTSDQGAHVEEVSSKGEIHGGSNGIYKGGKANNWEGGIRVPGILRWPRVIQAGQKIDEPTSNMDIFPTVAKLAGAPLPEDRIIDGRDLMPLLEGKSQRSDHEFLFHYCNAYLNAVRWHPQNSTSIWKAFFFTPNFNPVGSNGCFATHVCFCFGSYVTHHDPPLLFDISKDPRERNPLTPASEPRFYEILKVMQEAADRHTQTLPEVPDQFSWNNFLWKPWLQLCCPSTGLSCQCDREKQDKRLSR
Description: Inhibition of steroid sulphatase (E1-STS) activity in intact MCF-7 breast cancer cells. The series is classed as cell-based.

Series [2] addresses T1, oestrone sulphatase (E1-STS). Description: Inhibition of steroid sulphatase activity in placental microsomes. The series is classed as biochemical. The arrangement: from tissue; host or cells: human term placenta (microsomal preparation).
Description: Inhibition of Steroid Sulphatase Activity in Placental Microsomes
Sulphatase-positive human placenta from normal term pregnancies are thoroughly minced with scissors and washed once with cold phosphate buffer (pH 7.4, 50 mM) then re-suspended in cold phosphate buffer (5 ml/g tissue). Homogenisation is accomplished with an Ultra-Turrax homogeniser, using three 10 second bursts separated by 2 minute cooling periods in ice. Nuclei and cell debris are removed by centrifuging (4° C.) at 2000 g for 30 minutes and portions (2 ml) of the supernatant are stored at 20° C.
Incubations (1 ml) are carried out using a protein concentration of 100 mg/ml, substrate concentration of 20 mM [6,7-3H]oestrone-3-sulphate (specific activity 60 Ci/mmol from New England Nuclear, Boston, Mass., U.S.A.) and an incubation time of 20 minutes at 37° C. If necessary eight concentrations of compounds are employed: 0 (i.e. control); 0.05 mM; 0.1 mM; 0.2 mM; 0.4 mM; 0.6 mM; 0.8 mM; 1.0 mM. After incubation each sample is cooled and the medium (1 ml) was pipetted into separate tubes containing [14C]oestrone (7×10^3 dpm) (specific activity 97 Ci/mmol from Amersham International Radiochemical Centre, Amersham, U.K.). The mixture is shaken thoroughly for 30 seconds with toluene (5 ml). […] A portion (2 ml) of the organic phase was removed, evaporated and the 3H and 14C content of the residue determined by scintillation spectrometry. The mass of oestrone-3-sulphate hydrolysed is calculated from the 3H counts obtained (corrected for the volumes of the medium and organic phase used, and for recovery of [14C]oestrone added) and the specific activity of the substrate.

Structures are written as SMILES. Several values for one entry are separate records, joined by “and”; a condition that tells them apart may be missing. Equal values may be shown once.

Turning to `NS(=O)(=O)Oc1ccc(Cc2ccc(OS(N)(=O)=O)cc2)cc1` [Compound 18, 4,4′-Bis-sulphamoyloxydiphenylmethane], the “% Inhibition of E1-STS activity in MCF-7 cells” value (“% Inhibition … in MCF-7 cells” below) in series [1] (0.1 μM) is 22.2 ± 0.1%; in series [1] (1 μM) it was 50.01 ± 0.1%; in series [1] (10 μM), 93.3 ± 0.1%. Further, the “% Inhibition of E1-STS activity in placental microsomes” value (shortened to “% Inhibition … in placental microsomes”) in series [2] (10 μM) turned out to be 22.1 ± 0.6%; in series [2] (25 µM), 29.4 ± 0.1%; in series [2] (50 µM), 38.7 ± 4.9%; in series [2] (100 µM), 53.1 ± 0.1%.
`NS(=O)(=O)Oc1ccc(C23CC4CC(C2)CC(c2ccc(OS(N)(=O)=O)cc2)(C4)C3)cc1` [Compound 20, (1,3-Adamantanediyl)diphenyl-4,4′-O,O-bis-sulphamate]: the “% Inhibition … in MCF-7 cells” value was found to be 16.1 ± 4.0% in series [1] (0.1 μM), 32.7 ± 2.3% in series [1] (1 μM) and 90.1 ± 0.7% in series [1] (10 μM). Further, the “% Inhibition … in placental microsomes” value in series [2] (10 μM) turned out to be 31.4 ± 1.6%; in series [2] (25 µM), 41.9 ± 2.3%; in series [2] (50 µM) it was 62.5 ± 7.5%; in series [2] (100 µM), 69.0 ± 4.8%.
With `NS(=O)(=O)Oc1ccc2c(c1)C(=O)c1ccc(O)cc1C2=O` [Compound 11, 2-hydroxyanthraquinone-6-O-sulphamate], the “% Inhibition … in MCF-7 cells” value in series [1] (0.1 μM) is given as 99.3 ± 0.6%; in series [1] (1 μM), 94.5 ± 1.6%; in series [1] (10 μM), 90.1 ± 0.8%. Besides, the “% Inhibition … in placental microsomes” value is 86% and 86.1 ± 0.5% in series [2] (10 μM); 91.2 ± 0.2% in series [2] (25 µM); 94.4 ± 0.5% in series [2] (50 µM); 95.6 ± 0.1% in series [2] (100 µM).
With `NS(=O)(=O)Oc1ccc2c(c1)C(=O)c1ccc(OS(N)(=O)=O)cc1C2=O` [Compound 10, Anthraquinone-2,6-O,O-bis-sulphamate], the “% Inhibition … in MCF-7 cells” value in series [1] (0.1 μM) was 93% and 93.1 ± 2.1%; in series [1] (1 μM), 98.6 ± 1.0%; in series [1] (10 μM), 99.1 ± 0.1%. In addition, the “% Inhibition … in placental microsomes” value in series [2] (25 µM) is on record as 95.7 ± 0.5%; in series [2] (50 µM) it was 97.2 ± 0.3%; in series [2] (100 µM) it was 97.7 ± 0.1%.
Consider `NS(=O)(=O)Oc1ccc(S(=O)(=O)c2ccc(OS(N)(=O)=O)cc2)cc1` [Compound 14, Sulphonyldiphenyl-4,4′-O,O-bis-sulphamate], for which the results for the “% Inhibition … in MCF-7 cells” value in series [1] (0.1 μM), in series [1] (1 μM) and in series [1] (10 μM) were less than 10%, 50.6 ± 3.3% and 87.4 ± 2.7%, respectively. The “% Inhibition … in placental microsomes” value in series [2] (10 μM) is on record as 65.0 ± 1.8%; in series [2] (25 µM) it was 85.5 ± 0.6%; in series [2] (50 µM) it was 92.3 ± 0.3%; in series [2] (100 µM), 95.4 ± 0.2%.
Consider `NS(=O)(=O)Oc1ccc(C(=O)c2ccc(O)cc2)cc1` [Compound 5, 4′-Hydroxybenzophenone-4-O-sulphamate], for which the “% Inhibition … in MCF-7 cells” value was determined as 34.8 ± 1.7% in series [1] (0.1 μM), 83.8 ± 0.5% in series [1] (1 μM) and 96.7 ± 1.0% in series [1] (10 μM). In addition, the “% Inhibition … in placental microsomes” value stood at 62.1 ± 1.4% in series [2] (10 μM), 82.0 ± 0.4% in series [2] (25 µM), 88.1 ± 0.3% in series [2] (50 µM) and 92.8 ± 0.2% in series [2] (100 µM).
In the case of `Oc1ccc(C(O)(c2ccc(O)cc2)C2CCCCC2)cc1` [Compound 24, 1-Cyclohexyl-1,1-di-(4-hydroxyphenyl)methanol], the “% Inhibition … in placental microsomes” value in series [2] (10 μM) is less than 10%; in series [2] (25 µM), 20.0 ± 1.6%; in series [2] (50 µM), 33.4 ± 2.2%; in series [2] (100 µM), 44.7 ± 0.4%.
Turning to `NS(=O)(=O)Oc1ccc(C23CC4CC(CC(c5ccc(O)cc5)(C4)C2)C3)cc1` [Compound 21, 4′-hydroxy-(1,3-adamantanediyl)diphenyl-4-O-sulphamate], the “% Inhibition … in MCF-7 cells” value in series [1] (0.1 μM) was less than 10%; in series [1] (1 μM), 16.3 ± 1.5%; in series [1] (10 μM), 64.1 ± 1.1%. Besides, the “% Inhibition … in placental microsomes” value was less than 10% in series [2] (10 μM), 15.9 ± 0.9% in series [2] (25 µM), 32.5 ± 1.1% in series [2] (50 µM) and 60.1 ± 3.4% in series [2] (100 µM).
Regarding `NS(=O)(=O)Oc1ccc(C(=O)C=Cc2ccccc2)cc1` [Compound 8, Chalcone-4′-O-sulphamate], the figures for the “% Inhibition … in MCF-7 cells” value in series [1] (0.1 μM), in series [1] (1 μM) and in series [1] (10 μM) were less than 10%, 33.04 ± 10.68% and 87.89 ± 2.02%, respectively. Moreover, the “% Inhibition … in placental microsomes” value in series [2] (10 μM) is given as 71.27 ± 2.42%; in series [2] (50 µM), 75.79 ± 2.06%; in series [2] (100 µM), 80.51 ± 1.87%.
In the case of `NS(=O)(=O)Oc1cccc(C(=O)c2cccc(O)c2)c1` [Compound 29, 3′-hydroxybenzophenone-3-O-sulphamate], the figures for the “% Inhibition … in MCF-7 cells” value in series [1] (0.1 μM), in series [1] (1 μM) and in series [1] (10 μM) were less than 10%, 30.7 ± 5.6% and 87.2 ± 1.8%, respectively. The “% Inhibition … in placental microsomes” value in series [2] (10 μM) is 18.8 ± 1.3%; in series [2] (25 µM), 30.7 ± 3.4%; in series [2] (50 µM) it was 43.7 ± 2.6%; in series [2] (100 µM), 58.3 ± 0.1%.
As to `NS(=O)(=O)Oc1ccc(Sc2ccc(OS(N)(=O)=O)cc2)cc1` [Compound 15, Thiodiphenyl-4,4′O,O-bis-sulphamate], the “% Inhibition … in MCF-7 cells” value in series [1] (0.1 μM) was found to be 67.2 ± 1.1%; in series [1] (1 μM), 96.6 ± 1.4%; in series [1] (10 μM) it was 99.7 ± 0.1%. In addition, the “% Inhibition … in placental microsomes” value in series [2] (10 μM) is listed as 65.3 ± 0.9%; in series [2] (25 µM), 79.4 ± 0.9%; in series [2] (50 µM), 87.4 ± 0.9%; in series [2] (100 µM) it was 91.9 ± 0.4%.
For the molecule `NS(=O)(=O)Oc1ccc(Sc2ccc(O)cc2)cc1` [Compound 16, 4′-hydroxy-thiodiphenyl-4-O-sulphamate], the “% Inhibition … in MCF-7 cells” value in series [1] (0.1 μM) was determined as 26.6 ± 4.3%; in series [1] (1 μM), 83.9 ± 1.2%; in series [1] (10 μM), 97.7 ± 0.4%. The “% Inhibition … in placental microsomes” value was determined as 33.1 ± 1.7% in series [2] (10 μM), 49.5 ± 0.1% in series [2] (25 µM), 64.7 ± 0.9% in series [2] (50 µM) and 76.8 ± 0.4% in series [2] (100 µM).
As to `NS(=O)(=O)Oc1ccc(C(=O)c2ccccc2)cc1` [Compound 6, Benzophenone-4-O-sulphamate], the figures for the “% Inhibition … in MCF-7 cells” value in series [1] (0.1 μM), in series [1] (1 μM) and in series [1] (10 μM) were less than 10%, 33.04 ± 10.68% and 87.89 ± 2.02%, respectively. Further, the “% Inhibition … in placental microsomes” value is 76.73 ± 2.47% in series [2] (10 μM), 88.04 ± 0.82% in series [2] (50 µM) and 92.28 ± 0.41% in series [2] (100 µM).
As to `NS(=O)(=O)Oc1cccc(C(=O)c2cccc(OS(N)(=O)=O)c2)c1` [Compound 28, Benzophenone-3,3′-O,O-bis-sulphamate], the “% Inhibition … in MCF-7 cells” value is reported as 75.3 ± 0.8% in series [1] (0.1 μM), 98.4 ± 0.3% in series [1] (1 μM) and 99.9 ± 0.1% in series [1] (10 μM). The “% Inhibition … in placental microsomes” value was 51.1 ± 3.7% in series [2] (10 μM), 73.6 ± 1.9% in series [2] (25 µM) and 84.1 ± 1.9% in series [2] (50 µM).
For `NS(=O)(=O)Oc1ccc2oc3ccccc3c2c1` [Compound 9, Dibenzofuran-2-O-sulphamate], the “% Inhibition … in MCF-7 cells” value in series [1] (0.1 μM) is on record as 21.3 ± 1.5%; in series [1] (1 μM), 67.9 ± 1.9%; in series [1] (10 μM) it was 97.1 ± 0.8%. Moreover, the “% Inhibition … in placental microsomes” value in series [2] (10 μM) is 28.8 ± 3.2%; in series [2] (25 µM), 48.5 ± 0.5%; in series [2] (50 µM), 62.0 ± 2.8%; in series [2] (100 µM), 75.8 ± 1.2%.
On to `NS(=O)(=O)Oc1ccc(C=CC(=O)c2ccccc2)cc1` [Compound 7, Chalcone-4-O-sulphamate], for which the “% Inhibition … in MCF-7 cells” value is given as less than 10% in series [1] (0.1 μM), 24.34 ± 11.89% in series [1] (1 μM) and 83.81 ± 0.17% in series [1] (10 μM). Moreover, the results for the “% Inhibition … in placental microsomes” value in series [2] (10 μM), in series [2] (50 µM) and in series [2] (100 µM) were 47.41 ± 0.05%, 75.11 ± 1.37% and 82.77 ± 0.23%, respectively.
